Test results reported in patent US20250144107A1, “USE OF A PIKFYVE INHIBITOR IN COMBINATION WITH IMMUNOTHERAPY” (The Regents of the University of Michigan, priority 2023, published 2025).

What was measured:
[1] = tested on: cDCs co-cultured with OT-I and OT-II cells; assay: cDC antigen presentation and OT-I/OT-II co-culture; type: cell-based, mice
Method: FIG. 13T is a box and whisker plot of the percentage of IFNγ^+ OT-I cells after 72 hours of co-culture with DMSO or apilimod pre-treated cDCs with or without sOVA, 10 μg/ml.
FIG. 13V is a box and whisker plot of the percentage of IFNγ^+ OT-II cells after 72 hours of co-culture with DMSO or apilimod pre-treated cDCs with or without sOVA, 10 μg/ml.
FIG. 19G is a line graph (Left) and box and whisker plot (Right) of relative median fluorescent intensity of surface H-2kb-SIINFEKL in DMSO or apilimod-treated cDCs with or without 12 hours of pOVA, 100 ng/ml, treatment.
FIG. 19H is a scatter plot (Left) and box and whisker plot (Right) of relative median fluorescent intensity of percent H2kb-SIINFEKL^+ cells in DMSO or apilimod-treated cDCs with or without 12 hours of pOVA, 100 ng/ml, treatment.
FIG. 20D is a scatter plot (Left) and box and whisker plot (Right) of percentage of IFNγ^+ OT-I cells after 48 hours of co-culture with DMSO or apilimod pre-treated cDCs with or without pOVA, 100 ng/ml.
FIG. 20E is a scatter plot (Left) and box and whisker plot (Right) of percentage of granzyme B^+ OT-I cells after 48 hours of co-culture with DMSO or apilimod pre-treated cDCs with or without pOVA, 100 ng/ml.
FIG. 20H is a box and whisker plot of the percent of Ki67^+ OT-I cells after 72 hours of co-culture with DMSO or apilimod pre-treated cDCs with or without sOVA, 10 μg/ml.
FIG. 20I is a box and whisker plot of the percent of Ki67^+ OT-II cells after 72 hours of co-culture with DMSO or apilimod pre-treated cDCs with or without sOVA, 10 μg/ml.

[2] = tested on: subcutaneous MC38 tumors; assay: Subcutaneous MC38 tumor model; type: in vivo, mice
Method: FIG. 16A is a line graph of the subcutaneous tumor volume of MC38 tumors in mice treated with vehicle or apilimod, 30 mg/kg×5 days/week.
FIG. 16B is a series of two scatter plots of the percent IFNγ^+ of CD8^+ T cells in vehicle or apilimod-treated MC38 tumors.
FIG. 16C is a line graph of the subcutaneous tumor volume of MC38 tumors in mice treated with vehicle versus apilimod, 30 mg/kg×5 days/week, in wild-type or Batf3^−/− mice.
FIG. 26A is a bar graph of the percent IFNγ^+ of CD8^+ T cells in vehicle or apilimod-treated, 30 mg/kg×5 days/week MC38 tumors.
FIG. 26B is a line graph of the subcutaneous tumor volume of MC38 tumors treated with vehicle versus apilimod, 30 mg/kg×5 days/week, in NSG™ mice.
FIG. 26C is a line graph of the subcutaneous tumor volume of MC38 tumors in mice treated with vehicle versus apilimod, 30 mg/kg×5 days/week, and additionally treated with IgG2a or αIL-12p40 blocking antibody.
FIG. 26D is a line graph of the subcutaneous tumor volume of MC38 tumors in mice treated with vehicle versus apilimod, 30 mg/kg×5 days/week, and additionally treated with IgG1 or αIFNγ blocking antibody.

[3] = tested on: B16F10-OVA tumors; assay: B16F10-OVA tumor model with PolyI:C adjuvant; type: in vivo, mice
Method: FIG. 16F is a series of four line graphs of the Individual growth curves of subcutaneous B16F10-OVA tumor volume following 21 days of pre-treatment with vehicle versus apilimod, 30 mg/kg daily, with or without subcutaneous injection of water versus PolyI:C, 100 μg on Day 1 and Day 14.
FIG. 16H is a series of four line graphs of the Individual growth curves of subcutaneous B16F10-OVA tumor volume in mice treated with vehicle or apilimod, 30 mg/kg daily, with or without a subcutaneous injection of water versus PolyI:C, 100 μg once weekly.
FIG. 26I is a line graph of the subcutaneous tumor volume of B16F10-OVA tumors following 21 days of pre-treatment with vehicle versus apilimod, 30 mg/kg×5 days/week, with or without subcutaneous injection of water versus PolyI:C, 100 μg on Day 1 and Day 14.
FIG. 26J is a line graph of the subcutaneous tumor volume of B16F10-OVA tumors in mice treated with vehicle or apilimod, 30 mg/kg×5 days/week, with or without subcutaneous injection of water versus PolyI:C, 100 μg once weekly.

[4] = tested on: tumor infiltrating DCs in B16F10 tumors; assay: Tumor infiltrating DCs in B16F10 tumors of PIKfyve KO or WT mice; type: in vivo; settings: for percentage of cDC1s: 30 mg/kg daily
Method: FIG. 15E is a box and whisker plot of the XCR1 median fluorescent intensity by % cDC1 subset in B16F10 tumor model treated with vehicle or apilimod, 30 mg/kg daily.
FIG. 15F is a series of three box and whisker plot of the XCR1 median fluorescent intensity by all DCs, cDC1 or cDC2 subset in PIKfyve KO mice or WT mice treated with vehicle or apilimod, 30 mg/kg daily.
FIG. 23F is a box and whisker plot of the % cDC2 of all DC cells in PIKfyve KO mice or WT mice treated with vehicle or apilimod, 30 mg/kg daily.
FIG. 23G is a series of three box and whisker plots of the SIRP1α median fluorescent intensity by all DC, cDC1 or cDC2 subset in PIKfyve KO mice or WT mice treated with vehicle or apilimod, 30 mg/kg daily.

[5] = Overall comparison across preclinical models; type: in vivo; settings: in many of models; dose of apilimod higher than ESK981
Description: This could be, at least partially, explained by the reported instability of apilimod See, e.g., Ikonomov, O. C. et al., Toxicol. Appl. Pharmacol. 2019; 383:114771.

Compound: Cc1cccc(/C=N/Nc2cc(N3CCOCC3)nc(OCCc3ccccn3)n2)c1 [apilimod, N-[(E)-(3-methylphenyl)methylideneamino]-6-morpholin-4-yl-2-(2-pyridin-2-ylethoxy)pyrimidin-4-amine]
- total intensity and percentage of cells with H2-kb-SIINFEKL surface expression ([1]; pOVA, vs DMSO): greater
- T cell activation (IFNγ+ and granzyme B+ OT-I cells) ([1]; peptide antigen-loaded cDCs, vs DMSO): increase
- percentages of Ki67+ and IFNγ+ OT-I cells ([1]; sOVA-loaded cDCs, vs DMSO): increases
- percentages of Ki67+ and IFNγ+ OT-II cells ([1]; sOVA-loaded cDCs, vs control): higher percentages
- efficacy in Batf3−/− mice ([2]; Batf3−/− vs WT mice): loss of apilimod efficacy
- percentage of intratumoral IFNγ+CD8+ T cells ([2]; WT mice): increased
- MC38 tumor growth ([2]; WT mice, 30 mg/kg x 5 days/week, vs vehicle): reduced
- efficacy in NSG mice ([2]; immune-deficient NSG mice): lost
- efficacy with neutralizing antibody against IFNγ ([2]; vs isotype control): reduced
- efficacy with neutralizing antibody against IL-12 ([2]; vs isotype control): reduced
- subsequent tumor growth ([3]; 21 days pre-treatment, combination of apilimod and PolyI:C, vs control or either agent alone): decrease
- tumor growth inhibition ([3]; treatment after inoculation, combination of apilimod and PolyI:C): further potentiated
- tumor growth ([3]; treatment after inoculation, each agent alone): modest tumor growth inhibition
- percentage of cDC1s ([4]; KO mice): no additional increase
- total surface XCR1 expression, differences between groups compared with cDC1 percentage ([4]; WT and KO mice): the same
- percentage of cDC1s ([4]; WT mice): increased
- percentage of cDC2s or total surface SIRP1α expression ([4]; between any groups): no changes
- efficacy relative to ESK981 [5]: weaker than ESK981
